Consider 4 compounds from article PMC3792958, “Olomoucine II, but Not Purvalanol A, Is Transported by Breast Cancer Resistance Protein (ABCG2) and P-Glycoprotein (ABCB1)” (PLoS ONE, 2013).

Data set [1] relates to ABCG2. On the set-up: method as in PMID 18841444. The following applies: in vitro hematoporphyrin transport, Sf9 membrane vesicles; cited from earlier work.
Data set [2] deals with ABCG2. The experiment in a line: Cellular monolayer transport assay, MDCKII-ABCG2 cells. The following applies: human. The procedure:
(§1) ABCG2- and ABCB1-transduced MDCKII sublines (MDCKII-ABCG2 and MDCKII-ABCB1), which stably express ABCG2 and ABCB1 protein, respectively, were purchased from dr. Alfred Schinkeĺs lab (The Netherlands Cancer Institute, Amsterdam, The Netherlands). These transduced sublines as well as the parental MDCKII cell line (MDCKII-par) were routinely cultured in complete Dulbecco’s modified Eagle’s medium with 10% fetal bovine serum. 100 U/ml penicillin and 100 µg/ml streptomycin were used while growing the cells on the membrane inserts. All cells were routinely cultivated in antibiotic-free medium and periodically tested for mycoplasma contamination. […] Cells from passages 15 to 25 were used in all in vitro studies. Dimethyl sulfoxide was applied as a CDKi solvent in concentrations not exceeding 0.1%.
(§2) MDCKII-ABCG2, MDCKII-ABCB1 or MDCKII-par cells were seeded at a density of 1×10^6 per insert 72 h before experiment. The medium was replaced after 24 and 48 h of cultivation. One hour before the start of the experiment, the cells were washed with prewarmed 1×phospate buffered saline on both the apical and basal sides and Opti-MEM with or without fumitremorgin C or LY335979 was added into both compartments. At time 0, the experiment was started by replacing the medium with fresh Opti-MEM with or without CDKi and fumitremorgin C or LY335979 in the appropriate chamber. Samples were taken every 2 h from the opposite chambers for the duration of the experiment (6 h). Concentration of CDKi was determined via HPLC/MS analysis. Immediately after the experiment, cellular monolayer integrity was examined using fluorescein isothiocyanate labeled dextran (MW = 40 kDa). Dextran leakage was accepted up to 1% per hour.
(§3) HPLC/MS analysis using LC 20A Prominence chromatographic system (Shimadzu, Kyoto, Japan) coupled with LCQ Max advantage mass spectrometer (Thermo Finnigan, San Jose, CA, USA) was used for the quantification of olomoucine II and purvalanol A. The separation was performed on a Hypersil GOLD C18 column (100 × 4.6 mm, particle size 3 µm) protected with an OPTI-GUARD 1 mm guard column C18. The mobile phase flow rate was 0.35 ml/min and the column temperature was maintained at 40°C. The data were processed using Xcalibur 2.0 software (Thermo Finnigan, San Jose, CA, USA).
(§4) The detector was set as follows: spray voltage of 4.5 kV, capillary temperature of 320°C, sheet and auxiliary gas flows of 30 and 12 arbitrary units, respectively. […] The collision energies were 38% and 40% for olomoucine II and IS, respectively. […] The sample stability was evaluated within 94 h.
(§5) The detector was set as follows: spray voltage of 5.5 kV, capillary temperature of 340°C, sheet and auxiliary gas flows of 28 and 13 arbitrary units, respectively. […] The collision energies were 38% and 40% for purvalanol A and IS, respectively. […] The sample stability was evaluated within 94 hours.
(§6) Transport of olomoucine II by ABCG2 and ABCB1 was tested in vitro using transport assays across the polarized monolayers of MDCKII-ABCG2 and MDCKII-ABCB1 cells, respectively. In this method, the transport across the monolayer is greatly accelerated in the basolateral to apical direction, when the compound is a substrate of examined transporter. Based on our previous studies, three olomoucine II concentrations (100 nM, 1 µM and 10 µM) were tested and transport ratios (r; olomoucine II transport in basolateral to apical direction divided by transport in apical to basolateral direction) 2 h after olomoucine II addition were calculated.

The target of data set [3] is T1, ABCG2 (Homo sapiens, UniProt Q9UNQ0).
T1 sequence (Q9UNQ0 1-655): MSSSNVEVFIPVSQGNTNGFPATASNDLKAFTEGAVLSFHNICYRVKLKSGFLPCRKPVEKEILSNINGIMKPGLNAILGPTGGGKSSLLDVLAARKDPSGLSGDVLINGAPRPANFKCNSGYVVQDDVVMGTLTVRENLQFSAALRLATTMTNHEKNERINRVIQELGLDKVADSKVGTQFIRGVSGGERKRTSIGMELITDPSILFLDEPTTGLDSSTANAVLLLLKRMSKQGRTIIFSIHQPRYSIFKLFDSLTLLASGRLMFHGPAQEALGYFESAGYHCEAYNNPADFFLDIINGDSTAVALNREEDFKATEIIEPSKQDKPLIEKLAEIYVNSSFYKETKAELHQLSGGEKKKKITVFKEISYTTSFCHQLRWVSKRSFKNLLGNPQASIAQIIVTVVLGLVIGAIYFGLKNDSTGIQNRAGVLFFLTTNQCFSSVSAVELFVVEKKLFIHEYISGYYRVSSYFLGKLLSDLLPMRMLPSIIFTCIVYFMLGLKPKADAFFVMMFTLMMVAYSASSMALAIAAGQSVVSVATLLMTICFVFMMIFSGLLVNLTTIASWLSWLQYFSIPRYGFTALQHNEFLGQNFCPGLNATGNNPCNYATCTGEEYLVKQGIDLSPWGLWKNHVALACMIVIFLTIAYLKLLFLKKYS
The description is as above. The protocol: as §1, §2, §3, §4, §5, §6

In data set [4] the test system is ABCG2-expressing cell lines. The following applies: combination method of Chou-Talalay; cited from earlier work.
The subject of the next data set is MDCKII cells. The experiment in a line: Generation of sulfated conjugate in MDCKII cells (HPLC/MS). The data set is classed as in vitro ADME, canine. The following applies: MDCKII-ABCG2, MDCKII-ABCB1 and MDCKII-par; MS analysis. The procedure:
Concentration of CDKi was determined via HPLC/MS analysis. […] Dextran leakage was accepted up to 1% per hour.
In olomoucine II transport experiments, we recorded time-dependent generation of an unknown peak in the fifth minute of HPLC analysis in all three cell lines tested (MDCKII-ABCG2, MDCKII-ABCB1 and MDCKII-par). Based on the MS analysis, the compound was identified as a sulfated conjugate of olomoucine II (Fig. 2). […] On the other hand, the amount of sulfated metabolite increased with time and caused remarkable distortion of the results of parent compound. Therefore, when analyzing the data of unconjugated olomoucine II, the time interval was shortened to 2 hours in order to reduce the misrepresenting effect of sulfated olomoucine II. Considering ionic nature of sulfated olomoucine II, it is obvious that this compound cannot escape from the cells via passive diffusion but must utilize special transport system(s). Relative quantification of olomoucine II sulfate allowed us to describe its pharmacokinetic behavior in all MDCKII cell sublines.
Figure 2 Mass spectra of an unknown peak eluted in the fifth minute of HPLC analysis of olomoucine II transport. (A) spectrum in positive mode, (B) MS^2 in positive mode, (C) negative mode, (D) MS^2 in negative mode. […]

For data set [5], the system named is ABCB1. As to the kind of experiment: Cellular monolayer transport assay, MDCKII-ABCB1 cells. As to conditions: human. The protocol:
as §1, §2, §3, §4, §5, §6

Data set [6] deals with ABCB1 (Homo sapiens, UniProt P08183). The description is as above. The protocol: as §1, §2, §3, §4, §5, §6
Data set [7] has as its system ABCG2. The following applies: cited from earlier work; for inhibition of ABCG2: in vitro and in situ levels.
Data set [8] in a line: Cellular monolayer transport assay, parental MDCKII-par cells. As to conditions: dog, MDCK. The procedure:
as §1, §2, §3, §4, §5, §6

A further data set relates to MDCKII-par cells. The data set is described as above. The following applies: olomoucine II 100 nM and 1 µM, 2 h, 1 µM LY335979 (endogenous canine Abcb1 inhibitor). The protocol: as §1, §2, §3, §4, §5, §6
In data set [9] the test system is ABCB1. As to conditions: bovine brain microvessel endothelial cell monolayers; cited from earlier work.
Data set [10] has as its system ABCG2. As to conditions: cited from earlier work.
For data set [11], the system named is multidrug resistance associated protein 1 (ABCC1). Also on record: method as in PMID 20699410. The following applies: cited from earlier work.
In data set [12] the test system is multidrug resistance associated protein 2 (ABCC2). Also on record: method as in PMID 20699410. As to conditions: cited from earlier work.

SMILES strings stand for the structures.

Chain of ABCB1 (Homo sapiens, UniProt P08183) (P08183 whole entry): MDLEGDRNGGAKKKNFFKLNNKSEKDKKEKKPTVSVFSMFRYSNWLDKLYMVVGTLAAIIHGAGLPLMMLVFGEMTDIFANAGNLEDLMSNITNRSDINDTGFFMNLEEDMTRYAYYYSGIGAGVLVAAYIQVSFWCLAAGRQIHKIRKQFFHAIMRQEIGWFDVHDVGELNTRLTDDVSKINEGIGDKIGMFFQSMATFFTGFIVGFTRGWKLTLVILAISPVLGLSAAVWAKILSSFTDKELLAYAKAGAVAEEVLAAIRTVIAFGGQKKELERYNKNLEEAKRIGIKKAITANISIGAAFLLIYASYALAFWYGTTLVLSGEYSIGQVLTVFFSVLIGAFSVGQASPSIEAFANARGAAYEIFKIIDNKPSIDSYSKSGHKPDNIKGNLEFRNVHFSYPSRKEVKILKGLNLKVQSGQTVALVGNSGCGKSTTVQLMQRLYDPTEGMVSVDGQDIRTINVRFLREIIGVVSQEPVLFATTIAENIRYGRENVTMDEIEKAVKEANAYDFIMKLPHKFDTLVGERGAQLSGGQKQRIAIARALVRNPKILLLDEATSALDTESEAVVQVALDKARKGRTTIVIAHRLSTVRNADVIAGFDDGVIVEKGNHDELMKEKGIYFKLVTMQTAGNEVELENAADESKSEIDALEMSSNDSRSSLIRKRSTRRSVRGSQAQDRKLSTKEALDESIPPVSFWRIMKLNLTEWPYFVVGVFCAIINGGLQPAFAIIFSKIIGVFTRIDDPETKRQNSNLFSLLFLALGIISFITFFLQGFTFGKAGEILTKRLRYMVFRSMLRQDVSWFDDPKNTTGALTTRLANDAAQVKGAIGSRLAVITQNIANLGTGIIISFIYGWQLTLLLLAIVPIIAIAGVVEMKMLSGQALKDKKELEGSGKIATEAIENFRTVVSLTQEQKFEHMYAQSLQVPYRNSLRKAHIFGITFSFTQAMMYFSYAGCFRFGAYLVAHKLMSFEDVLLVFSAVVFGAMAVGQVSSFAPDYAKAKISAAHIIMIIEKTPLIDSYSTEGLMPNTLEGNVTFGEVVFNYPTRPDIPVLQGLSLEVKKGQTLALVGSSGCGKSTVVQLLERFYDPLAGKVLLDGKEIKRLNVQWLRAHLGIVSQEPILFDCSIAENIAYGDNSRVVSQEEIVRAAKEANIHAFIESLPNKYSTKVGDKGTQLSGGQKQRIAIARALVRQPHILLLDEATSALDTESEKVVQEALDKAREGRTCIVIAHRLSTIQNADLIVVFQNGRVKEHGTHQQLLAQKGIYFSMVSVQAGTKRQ

`COc1cc2ncnc(Nc3cccc(O)c3)c2cc1OC` [WHI-P180]: in the data set on ABCG2 [1], the ABCG2 inhibition result was “ABCG2 inhibition”.

One may read the efflux ratio as the permeability from basolateral to apical divided by that in the opposite direction, in the common usage. Regarding `CC[C@H](CO)Nc1nc(NCc2ccccc2O)c2ncn(C(C)C)c2n1` [olomoucine II], the efflux ratio at 2 h, 100 nM in the data set with ABCG2 [2] (with fumitremorgin C 5 µM) came out at 1.32; at ABCG2 [3] (human), 2.27; in the data set with ABCB1 [5] (MDCK-MDR1, with LY335979 1 µM) it was 1.48; on ABCB1 [6] (human, MDCK-MDR1) it was 6.45; in data set [8] it was 1.45. Further, the efflux ratio at 2 h, 1 µM was 1.21 with ABCG2 [2] (with fumitremorgin C 5 µM); 1.83 with ABCB1 [5] (MDCK-MDR1, with LY335979 1 µM); 6.83 on ABCB1 [6] (human, MDCK-MDR1); 1.39 in [8]. Also, the efflux ratio at 2 h, 10 µM worked out at 1.29 on ABCG2 [3] (human); 2.51 at ABCB1 [6] (human, MDCK-MDR1); 1.64 in data set [8]. In addition, the ABCG2 substrate status entry on ABCG2 [3] (in vitro, MDCKII-ABCG2 monolayers) was “dual substrate of ABCG2 and ABCB1”. At ABCG2 [3] (olomoucine II 1 µM, 2 h, without inhibitor), the “transport ratio r (basolateral to apical divided by apical to basolateral)” value is recorded as 2.31. In addition, in [4], the “potentiation of the antiproliferative effect of mitoxantrone” value was “synergistically potentiate”. For the same compound, the “sulfatation in MDCKII cells” value in the data set with MDCKII cells was “time-dependent generation of a metabolite”. Also, the “asymmetry in transport in MDCKII-ABCB1 cells in comparison with ABCG2 transduced cells” value at ABCB1 [6] (100 nM and 1 µM, 2 h) is reported as “approximately 3 fold”. Moreover, the ABCB1 substrate status result on ABCB1 [6] (in vitro, MDCKII-ABCB1 monolayers) was “substrate of ABCB1”. Moreover, the “ABCG2 inhibitory potency compared with fumitremorgin C” value in the data set with ABCG2 [7] is listed as “comparable or even higher potency than fumitremorgin C”. The “inhibition of ABCG2” value with ABCG2 [7] is listed as “inhibition of ABCG2”. Also, the “transport by placental ABCB1/ABCG2 in perfused rat placenta” value in the data set on placental ABCB1/ABCG2 is “actively pumped from fetus to mother”. For the same compound, the “change in r values after adding LY335979” value in the data set with MDCKII-par cells is listed as “did not observe statistically significant changes”.

On to `CC(C)[C@H](CO)Nc1nc(Nc2cccc(Cl)c2)c2ncn(C(C)C)c2n1` [purvalanol A], for which, in the data set with ABCG2 [2], the efflux ratio at 6 h, 1 µM was 1.33 and the efflux ratio at 6 h, 10 µM amounted to 1.26. Also, on ABCG2 [3] (human), the ABCG2 substrate status entry is recorded as “not an ABCG2 substrate”; the efflux ratio at 6 h, 1 µM was found to be 1.28; the efflux ratio at 6 h, 10 µM stood at 1.23. Besides, the “potentiation of the antiproliferative effect of mitoxantrone” value in data set [4] is on record as “synergistically potentiate”. Further, the “sulfatation in MDCKII cells” value with MDCKII cells is listed as “not subjected to sulfatation”. Moreover, in the data set on ABCB1 [5] (MDCK-MDR1), the efflux ratio at 6 h, 1 µM came to 1.2 and the efflux ratio at 6 h, 10 µM came to 1.18. Moreover, on ABCB1 [6] (human, MDCK-MDR1), the ABCB1 substrate status result is reported as “not an ABCB1 substrate”; the efflux ratio at 6 h, 1 µM was 1.36; the efflux ratio at 6 h, 10 µM is 1.26. Further, the ABCG2 inhibition entry in the data set with ABCG2 [1] was “ABCG2 inhibition”. In the data set on ABCG2 [7], the “ABCG2 inhibitory potency compared with fumitremorgin C” value is on record as “comparable or even higher potency than fumitremorgin C” and the “inhibition of ABCG2” value is “inhibition of ABCG2”. For the same compound, the “transport by placental ABCB1/ABCG2 in perfused rat placenta” value in the data set on placental ABCB1/ABCG2 is listed as “showed no interactions with these transporters”. Besides, in [8], the efflux ratio at 6 h, 1 µM was determined as 1.14 and the efflux ratio at 6 h, 10 µM was 1.05.

On to `CC[C@H](CO)Nc1nc(NCc2ccccc2)c2ncn(C(C)C)c2n1` [roscovitine], for which the “inhibition of ABCB1” value in the data set on ABCB1 [9] was “significant inhibition of ABCB1”. The “transport by ABCG2” value in the data set on ABCG2 [10] is on record as “not transported”. Further, the “transport by ABCC1” value in data set [11] is on record as “not transported”. For the same compound, the “transport by ABCC2” value in data set [12] was “not transported”.
